Laboratory results taken from patent US20080051429A1, “USE OF 4-AMINO-PIPERIDINES FOR TREATING SLEEP DISORDERS” (priority 2006, published 2008).

Tests used:
[1] = biological target: T1, 5HT2C (Homo sapiens, UniProt P28335); assay: R-SAT broad profiling; format: cell-based; design: expressed in transfected cells; conditions: read-out: pEC50/pIC50 (converted)
T1 sequence (P28335 33-458): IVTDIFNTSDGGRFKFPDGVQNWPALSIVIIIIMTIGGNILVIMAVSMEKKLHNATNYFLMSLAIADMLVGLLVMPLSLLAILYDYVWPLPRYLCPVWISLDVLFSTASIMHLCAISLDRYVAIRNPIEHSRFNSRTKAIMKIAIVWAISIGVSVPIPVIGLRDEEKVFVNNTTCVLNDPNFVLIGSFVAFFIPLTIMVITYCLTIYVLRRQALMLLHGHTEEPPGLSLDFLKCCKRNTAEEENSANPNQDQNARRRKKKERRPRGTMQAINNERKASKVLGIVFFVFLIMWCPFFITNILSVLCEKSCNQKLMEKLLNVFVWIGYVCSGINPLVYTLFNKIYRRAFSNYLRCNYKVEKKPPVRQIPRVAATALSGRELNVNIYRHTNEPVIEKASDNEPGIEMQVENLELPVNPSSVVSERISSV
Protocol: (§1) The functional receptor assay, Receptor Selection and Amplification Technology (R-SAT), was used (with minor modifications from that previously described U.S. Pat. No. 5,707,798) to screen compounds for efficacy at the 5-HT2A receptor. Briefly, NIH3T3 cells were grown in 96 well tissue culture plates to 70-80% confluence. Cells were transfected for 12-16 hours with plasmid DNAs using superfect (Qiagen Inc.) as per manufacture's protocols. R-SAT's were generally performed with 50 ng/well of receptor and 20 ng/well of Beta-galactosidase plasmid DNA. All receptor and G-protein constructs used were in the pSI mammalian expression vector (Promega Inc) as described in U.S. Pat. No. 5,707,798. The 5HT2A receptor gene was amplified by nested PCR from brain cDNA using the oligodeoxynucleotides based on the published sequence (see Saltzman et. al. Biochem. Biophys. Res. Comm. 181:1469-78 (1991)). Large-scale transfections, cells were transfected for 12-16 hours, then trypsinized and frozen in DMSO. Frozen cells were later thawed, plated at 10,000-40,000 cells per well of a 96 well plate that contained drug. With both methods, cells were then grown in a humidified atmosphere with 5% ambient CO2 for five days. Media was then removed from the plates and marker gene activity was measured by the addition of the beta-galactosidase substrate ONPG (in PBS with 5% NP-40). The resulting colorimetric reaction was measured in a spectrophotometric plate reader (Titertek Inc.)at […]. All data were analyzed using the computer program XLFit (IDBSm). Efficacy is the percent maximal repression compared to repression by a control compound (ritanserin in the case of 5HT2A). pIC50 is the negative of the log(IC50), where IC50 is the calculated concentration in Molar that produces 50% maximal repression.
(§2) The R-SAT assay (described above in example 136) was used to investigate the selectivity of 2-(4-Methoxyphenyl)-N-(4-methylbenzyl)-N-(1-methylpiperidin-4-yl)acetamide hydrochloride.

[2] = biological target: T2, 5HT1A (Homo sapiens, UniProt P08908); assay: R-SAT broad profiling; format: cell-based; design: expressed in transfected cells; conditions: read-out: pEC50/pIC50 (converted)
T2 sequence (P08908 1-422): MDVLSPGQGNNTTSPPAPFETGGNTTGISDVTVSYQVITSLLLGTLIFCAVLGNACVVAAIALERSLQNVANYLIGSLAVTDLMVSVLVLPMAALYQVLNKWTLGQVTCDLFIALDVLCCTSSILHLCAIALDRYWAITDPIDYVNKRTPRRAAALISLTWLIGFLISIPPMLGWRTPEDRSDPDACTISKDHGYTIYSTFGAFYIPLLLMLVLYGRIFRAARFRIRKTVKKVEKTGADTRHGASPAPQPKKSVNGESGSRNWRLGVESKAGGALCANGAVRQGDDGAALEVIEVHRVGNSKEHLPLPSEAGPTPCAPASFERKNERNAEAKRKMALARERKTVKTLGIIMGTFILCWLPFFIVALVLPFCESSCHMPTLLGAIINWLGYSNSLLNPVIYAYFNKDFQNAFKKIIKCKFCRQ
Protocol: as §1, §2

[3] = biological target: 5HT1D (Homo sapiens, UniProt P28221); assay: R-SAT broad profiling; format: cell-based; design: expressed in transfected cells; conditions: read-out: pEC50/pIC50 (converted)
Protocol: as §1, §2

[4] = biological target: 5HT1E (Homo sapiens, UniProt P28566); assay: R-SAT broad profiling; format: cell-based; design: expressed in transfected cells; conditions: read-out: pEC50/pIC50 (converted)
Protocol: as §1, §2

[5] = biological target: 5HT1B (Homo sapiens, UniProt P28222); assay: R-SAT broad profiling; format: cell-based; design: expressed in transfected cells; conditions: read-out: pEC50/pIC50 (converted)
Protocol: as §1, §2

[6] = biological target: T3, 5HT1F (Homo sapiens, UniProt P30939); assay: R-SAT broad profiling; format: cell-based; design: expressed in transfected cells; conditions: read-out: pEC50/pIC50 (converted)
T3 sequence (P30939 1-366): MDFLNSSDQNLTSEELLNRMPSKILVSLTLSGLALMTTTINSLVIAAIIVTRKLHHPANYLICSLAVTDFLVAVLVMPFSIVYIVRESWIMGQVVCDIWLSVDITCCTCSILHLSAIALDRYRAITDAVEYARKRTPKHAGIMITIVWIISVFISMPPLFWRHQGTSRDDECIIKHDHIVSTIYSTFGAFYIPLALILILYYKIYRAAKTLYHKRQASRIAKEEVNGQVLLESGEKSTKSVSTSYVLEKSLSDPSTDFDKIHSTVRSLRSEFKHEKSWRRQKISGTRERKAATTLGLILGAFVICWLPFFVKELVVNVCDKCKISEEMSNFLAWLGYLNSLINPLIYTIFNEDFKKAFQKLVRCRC
Protocol: as §1, §2

[7] = tested on: healthy volunteers; assay: Clinical safety evaluation; format: in vivo, human
Protocol: Safety: 3-positional vital signs, ECGs, body temperature, and respiratory rates as well as blood chemistries, hematology, and urinalysis served as safety measures. Safety measures were assessed at screening, baseline (Day −1), Day 1, Day 2, Day 13, and Day 14. Any observed or reported adverse events were recorded. Blood samples were taken on Day −1 (baseline) and on Day 14 (steady state). Two weeks after the termination of treatment administration (Day 28), an end-of-study visit was conducted, and included a clinical safety evaluation.

5HT1E, sequence (P28566 whole entry, species assumed): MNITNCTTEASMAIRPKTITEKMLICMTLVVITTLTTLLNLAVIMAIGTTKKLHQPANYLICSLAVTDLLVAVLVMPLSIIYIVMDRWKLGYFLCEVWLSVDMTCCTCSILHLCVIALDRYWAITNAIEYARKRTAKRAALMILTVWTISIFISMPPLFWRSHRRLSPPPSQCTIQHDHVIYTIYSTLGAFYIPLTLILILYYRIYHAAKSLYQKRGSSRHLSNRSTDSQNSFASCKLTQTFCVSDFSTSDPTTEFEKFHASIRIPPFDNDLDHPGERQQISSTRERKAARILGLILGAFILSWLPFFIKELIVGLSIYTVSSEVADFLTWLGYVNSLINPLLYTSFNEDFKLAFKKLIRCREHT
5HT1D, sequence (P28221 whole entry, species assumed): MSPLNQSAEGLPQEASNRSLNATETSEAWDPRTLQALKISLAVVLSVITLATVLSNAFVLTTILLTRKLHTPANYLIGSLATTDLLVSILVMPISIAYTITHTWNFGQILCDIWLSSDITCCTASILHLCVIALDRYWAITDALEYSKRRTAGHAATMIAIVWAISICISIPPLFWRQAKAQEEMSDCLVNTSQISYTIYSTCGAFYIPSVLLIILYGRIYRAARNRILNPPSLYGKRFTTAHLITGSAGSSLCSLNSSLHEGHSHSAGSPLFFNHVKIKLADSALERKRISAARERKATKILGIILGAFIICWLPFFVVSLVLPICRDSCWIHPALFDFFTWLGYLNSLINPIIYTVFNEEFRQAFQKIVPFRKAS
5HT1B, sequence (P28222 whole entry, species assumed): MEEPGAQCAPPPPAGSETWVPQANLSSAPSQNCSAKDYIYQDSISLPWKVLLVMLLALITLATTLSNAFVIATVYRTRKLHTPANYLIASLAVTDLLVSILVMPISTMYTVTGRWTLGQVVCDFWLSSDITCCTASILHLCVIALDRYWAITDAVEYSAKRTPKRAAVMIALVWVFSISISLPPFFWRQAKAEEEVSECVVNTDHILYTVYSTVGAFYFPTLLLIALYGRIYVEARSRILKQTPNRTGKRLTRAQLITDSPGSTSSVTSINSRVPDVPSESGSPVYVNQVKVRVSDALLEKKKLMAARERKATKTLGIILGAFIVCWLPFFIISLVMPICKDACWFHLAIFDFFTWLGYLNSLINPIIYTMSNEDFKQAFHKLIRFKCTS

Structure (SMILES)	EC50 ([1]; agonist)	IC50 ([1]; inverse agonist)	EC50 ([2]; agonist)	IC50 ([2]; antagonist)	EC50 ([3]; agonist)	IC50 ([3]; antagonist)	EC50 ([4]; agonist)	IC50 ([4]; antagonist)	EC50 ([5]; agonist)	IC50 ([5]; antagonist)	EC50 ([6]; agonist)	IC50 ([6]; antagonist)	safety and tolerability ([7]; 1 to 20 mg once daily, 14 days)	serious adverse events ([7]; 1 to 20 mg once daily, 14 days)	nature of adverse events ([7]; comparable across placebo and treated groups)
COc1ccc(CC(=O)N(Cc2ccc(C)cc2)C2CCN(C)CC2)cc1 [Example 50ELH27, 2-(4-Methoxyphenyl)-N-(4-methylbenzyl)-N-(1-methylpiperidin-4-yl)acetamide]	> 3.16 µM	0.1 µM	> 3.16 µM	> 3.16 µM	> 3.16 µM	> 3.16 µM	> 3.16 µM	> 3.16 µM	> 3.16 µM	> 3.16 µM	> 3.16 µM	> 3.16 µM	–	–	–
CC(C)COc1ccc(CNC(=O)N(Cc2ccc(F)cc2)C2CCN(C)CC2)cc1 [N-(1-methylpiperidin-4-yl)-N-(4-fluorophenylmethyl)-N′-(4-(2-methylpropyloxy)phenylmethyl)carbamide]	–	–	–	–	–	–	–	–	–	–	–	–	safe and well tolerated	no serious adverse events	mild to moderate
